Assay results as given in patent publication US8658661B2, “Oxadiazole inhibitors of leukotriene production” (Boehringer Ingelheim International GmbH, priority 2010, dated 2014).

How the values were obtained:
[1] = target: T1, recombinant human FLAP protein (Homo sapiens, UniProt P20292); experiment: FLAP binding assay (SPA, displacement of [125I]L-691,831); conditions: membranes of sf9 cells expressing recombinant human FLAP; [125I]L-691,831 probe; read-out: FLAP binding IC50
T1 construct: made in house; host or cells: Sf9 insect cells (100,000×g membrane pellet used)
T1 sequence (P20292 1-161): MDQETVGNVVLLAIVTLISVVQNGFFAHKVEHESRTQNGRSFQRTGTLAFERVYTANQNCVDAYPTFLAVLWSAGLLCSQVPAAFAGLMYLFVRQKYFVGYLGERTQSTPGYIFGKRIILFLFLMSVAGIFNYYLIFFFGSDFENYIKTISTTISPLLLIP
Protocol: Assessment of Biological Properties 1. Binding Assay
Compounds are assessed for the ability to bind to FLAP in a binding assay that measures compound-specific displacement of an iodinated (^125I) FLAP inhibitor via a Scintillation Proximity Assay format (adapted from S. Charleson et al., Mol. Pharmacol., 1992, 41, 873-879).
Cell pellets produced from sf9 insect cells expressing recombinant human FLAP protein are resuspended in buffer A [15 mM Tris-HCl (pH 7.5), 2 mM MgCl2, 0.3 mM EDTA, 1 mM PMSF]. The cells are lysed with a Dounce homogenizer and the material is centrifuged at 10,000×g for 10 minutes. The supernatant is then collected and centrifuged at 100,000×g for 60 minutes. To prepare membrane protein for an assay, an aliquot of the 100,000×g pellet is resuspended in 1 ml of buffer A, Dounce homogenized, and finally subjected to polytron mixing (30 seconds). Membrane protein (25 μl, 5 μg) is mixed with WGA SPA beads (Amersham) and stirred for 1 h. […] (final concentrations: beads, 200 μg/well; protein, 5 μg/well; [^125I] probe, 0 08 nM/well (17 nCi/well). The plates are shaken for 2 h before reading on a Microbeta plate reader. Non-specific binding is determined by the addition of 10 μM cold L-691,831 compound.

[2] = system: synthesis of LTB4 in human whole blood; experiment: Human whole blood assay (inhibition of LTB4 synthesis, calcimycin stimulated); type: cell-based; conditions: heparinized human whole blood, calcimycin 20 μM, plasma LTB4
Protocol: Compounds are additionally tested in a human whole blood assay to determine their ability to inhibit the synthesis of LTB4 in a cellular system. Compounds are combined with heparinized human whole blood and incubated for 15 minutes at 37° C. Calcimycin (20 μM final, prepared in phosphate-buffered saline, pH 7.4) is then added and the mixture is incubated for another 30 minutes at 37° C. The samples are centrifuged for 5 min at low speed (1500×g) and the plasma layer is removed. Plasma LTB4 concentrations are then measured using an antibody-based homogenous time-resolved fluorescence method (CisBio, Bedford, Mass.).

| Compound | IC50 [1] [µM] | IC50 [2] [µM] |
| --- | --- | --- |
| CC(C)C(C)(c1ccc(-c2cnc(N)nc2)cc1)c1noc(N2CCN(C)C(=O)C2)n1 (centres unmarked) [Example 202, 4-(3-{1-[4-(2-Amino-pyrimidin-5-yl)-phenyl]-1,2-dimethyl-propyl}-[1,2,4]oxadiazol-5-yl)-1-methyl-piperazin-2-one] | 0.046 | 0.35 |
| CC(C)C(C)(c1ccc(-c2cnc(N)nc2)cc1)c1noc(-c2ccc(C(F)(F)F)nc2)n1 (centres unmarked) [Example 136, 5-[4-(3-methyl-2-{5-[6-(trifluoromethyl)pyridin-3-yl]-1,2,4-oxadiazol-3-yl}butan-2-yl)phenyl]pyrimidin-2-amine] | 0.0054 | 0.32 |
| Cn1cc(-c2nc([C@@H](c3ccc(-c4cnc(N)nc4)cc3)C(C)(C)C)no2)cn1 [Example 65, 5-(4-{(1R)-2,2-dimethyl-1-[5-(1-methyl-1H-pyrazol-4-yl)-1,2,4-oxadiazol-3-yl]propyl}phenyl)pyrimidin-2-amine] | 0.075 | 1.5 |
| CC1(O)CN(c2nc(C(C)(c3ccc(-c4cnc(N)nc4)cc3)C3CC3)no2)C1 (centres unmarked) [Example 276, 1-(3-{1-[4-(2-Amino-pyrimidin-5-yl)-phenyl]-1-cyclopropyl-ethyl}-[1,2,4]oxadiazol-5-yl)-3-methyl-azetidin-3-ol] | 0.028 | 0.26 |
| CC(C)C(C)(c1ccc(-c2cnc(N)nc2)cc1)c1noc(-c2c[nH]cn2)n1 (centres unmarked) [Example 126, 5-(4-{2-[5-(1H-imidazol-4-yl)-1,2,4-oxadiazol-3-yl]-3-methylbutan-2-yl}phenyl)pyrimidin-2-amine] | 0.0046 | 0.26 |
| CC(C)C(C)(c1ccc(-c2cnc(N)nc2)cc1)c1noc(C(=O)N2CCNCC2)n1 (centres unmarked) [Example 84, (3-{2-[4-(2-aminopyrimidin-5-yl)phenyl]-3-methylbutan-2-yl}-1,2,4-oxadiazol-5-yl)(piperazin-1-yl)methanone] | 0.12 | 1.7 |
| CC(c1ccc(-c2cnc(N)nc2)cc1)(c1noc(N2CCN(CCO)CC2)n1)C1CC1 (centres unmarked) [Example 252, 2-[4-(3-{1-[4-(2-Amino-pyrimidin-5-yl)-phenyl]-1-cyclopropyl-ethyl}-[1,2,4]oxadiazol-5-yl)-piperazin-1-yl]-ethanol] | 0.015 | 0.22 |
| CO[C@@H]1CCN(C(=O)Cn2cc(-c3nc([C@@](C)(c4ccc(-c5cnc(N)nc5)cc4)C4CC4)no3)cn2)C1 [Example 220, 2-[4-(3-{(R)-1-[4-(2-Amino-pyrimidin-5-yl)-phenyl]-1-cyclopropyl-ethyl}-[1,2,4]oxadiazol-5-yl)-pyrazol-1-yl]-1-((R)-3-methoxy-pyrrolidin-1-yl)-ethanone] | 0.0085 | 0.21 |
| CC(C)C(C)(c1ccc(-c2cnc(N)nc2)cc1)c1noc(-c2cnn(CC(C)(C)O)c2)n1 (centres unmarked) [Example 159, 1-[4-(3-{2-[4-(2-aminopyrimidin-5-yl)phenyl]-3-methylbutan-2-yl}-1,2,4-oxadiazol-5-yl)-1H-pyrazol-1-yl]-2-methylpropan-2-ol] | 0.0046 | 0.083 |
| CC(C)C(C)(c1ccc(-c2cnc(N)nc2)cc1)c1noc(N2CCC(C(N)=O)CC2)n1 (centres unmarked) [Example 213, 1-(3-{1-[4-(2-Amino-pyrimidin-5-yl)-phenyl]-1,2-dimethyl-propyl}-[1,2,4]oxadiazol-5-yl)-piperidine-4-carboxylic acid amide] | 0.014 | 0.33 |
| Cc1cc(-c2ccc([C@](C)(c3noc(-c4cnn(CC(C)(C)O)c4)n3)C3CC3)cc2)cnc1N [Example 179, 1-[4-(3-{(R)-1-[4-(6-Amino-5-methyl-pyridin-3-yl)-phenyl]-1-cyclopropyl-ethyl}-[1,2,4]oxadiazol-5-yl)-pyrazol-1-yl]-2-methyl-propan-2-ol] | 0.0046 | 0.049 |

Stronger by IC50 [1], values ahead:

| IC50 [1] [µM] | IC50 [2] [µM] | Compound |
| --- | --- | --- |
| 0.0016 | 0.19 | Cc1n[nH]c(C)c1-c1nc(C(C)(c2ccc(-c3cnc(N)nc3)cc2)C(C)C)no1 (centres unmarked) [Example 133, 5-(4-{2-[5-(3,5-dimethyl-1H-pyrazol-4-yl)-1,2,4-oxadiazol-3-yl]-3-methylbutan-2-yl}phenyl)pyrimidin-2-amine] |
| 0.0022 | 0.17 | CC(c1ccc(-c2cnc(N)nc2)cc1)(c1noc(-c2ccc(NCCS(C)(=O)=O)nc2)n1)C1CC1 (centres unmarked) [Example 41, 5-(4-{1-cyclopropyl-1-[5-(6-{[2-(methylsulfonyl)ethyl]amino}pyridin-3-yl)-1,2,4-oxadiazol-3-yl]ethyl}phenyl)pyrimidin-2-amine] |
| 0.0022 | 0.039 | CC(C)(O)Cn1cc(-c2nc([C@@](C)(c3ccc(-c4cnc(N)cn4)cc3)C3CC3)no2)cn1 [Example 175, 1-[4-(3-{(R)-1-[4-(5-Amino-pyrazin-2-yl)-phenyl]-1-cyclopropyl-ethyl}-[1,2,4]oxadiazol-5-yl)-pyrazol-1-yl]-2-methyl-propan-2-ol] |
| 0.00086 | 0.017 | CC(C)[C@](C)(c1ccc(-c2cnc(N)nc2)cc1)c1noc(-c2cnn(CC(C)(C)O)c2)n1 [Example 107, 1-[4-(3-{(2R)-2-[4-(2-aminopyrimidin-5-yl)phenyl]-3-methylbutan-2-yl}-1,2,4-oxadiazol-5-yl)-1H-pyrazol-1-yl]-2-methylpropan-2-ol] |
| 0.0022 | 0.18 | C[C@@](c1ccc(-c2cnc(N)nc2)cc1)(c1noc(-c2cnc(N3CCNCC3)cn2)n1)C1CC1 [Example 196, 5-(4-{(R)-1-Cyclopropyl-1-[5-(3,4,5,6-tetrahydro-2H-[1,2′]bipyrazinyl-5′-yl)-[1,2,4]oxadiazol-3-yl]-ethyl}-phenyl)-pyrimidin-2-ylamine] |
| 0.0028 | 0.077 | CC(C)C(C)(c1ccc(-c2cnc(N)nc2)cc1)c1noc(-c2cnccn2)n1 (centres unmarked) [Example 137, 5-(4-{3-methyl-2-[5-(pyrazin-2-yl)-1,2,4-oxadiazol-3-yl]butan-2-yl}phenyl)pyrimidin-2-amine] |
| 0.0013 | 0.046 | CC(C)C(C)(c1ccc(-c2cnc(N)nc2)cc1)c1noc(-c2cn[nH]c2)n1 (centres unmarked) [Example 146, 5-(4-{3-methyl-2-[5-(1H-pyrazol-4-yl)-1,2,4-oxadiazol-3-yl]butan-2-yl}phenyl)pyrimidin-2-amine] |
| 0.0017 | 0.036 | CC(C)[C@](C)(c1ccc(-c2cnc(N)nc2)cc1)c1noc(-c2cn[nH]c2)n1 [Example 77, 5-(4-{(2R)-3-methyl-2-[5-(1H-pyrazol-4-yl)-1,2,4-oxadiazol-3-yl]butan-2-yl}phenyl)pyrimidin-2-amine] |
| 0.0022 | 0.15 | CC(C)(O)CNc1cnc(-c2nc(C(C)(c3ccc(-c4cnc(N)nc4)cc3)C3CC3)no2)cn1 (centres unmarked) [Example 44, 1-{[5-(3-{1-[4-(2-aminopyrimidin-5-yl)phenyl]-1-cyclopropylethyl}-1,2,4-oxadiazol-5-yl)pyrazin-2-yl]amino}-2-methylpropan-2-ol] |
| 0.0015 | 0.53 | Cc1ncsc1-c1nc(C(C)(c2ccc(-c3cnc(N)nc3)cc2)C(C)C)no1 (centres unmarked) [Example 141, 5-(4-{3-methyl-2-[5-(4-methyl-1,3-thiazol-5-yl)-1,2,4-oxadiazol-3-yl]butan-2-yl}phenyl)pyrimidin-2-amine] |
| 0.0037 | 0.16 | CC(c1ccc(-c2cnc(N)nc2)cc1)(c1noc(-c2cn[nH]c2)n1)C1CCC1 (centres unmarked) [Example 34, 5-(4-{1-cyclobutyl-1-[5-(1H-pyrazol-4-yl)-1,2,4-oxadiazol-3-yl]ethyl}phenyl)pyrimidin-2-amine] |
| 0.0031 | 0.014 | CN(C)CCn1cc(-c2nc([C@@](C)(c3ccc(-c4cnc(N)nc4)cc3)C3CC3)no2)cn1 [Example 182, 5-[4-((R)-1-Cyclopropyl-1-{5-[1-(2-dimethylamino-ethyl)-1H-pyrazol-4-yl]-[1,2,4]oxadiazol-yl}-ethyl)-phenyl]-pyrimidin-2-ylamine] |
| 0.0033 | 0.29 | CC(C)C(C)(c1ccc(-c2cnc(N)nc2)cc1)c1noc(-c2ccc[nH]c2=O)n1 (centres unmarked) [Example 12, 3-(3-{2-[4-(2-aminopyrimidin-5-yl)phenyl]-3-methylbutan-2-yl}-1,2,4-oxadiazol-5-yl)pyridin-2(1H)-one] |
| 0.0035 | 0.021 | C[C@@](c1ccc(-c2ccc(N)nc2)cc1)(c1noc(-c2cnn(C3COC3)c2)n1)C1CC1 [Example 263, 5-(4-{(R)-1-Cyclopropyl-1-[5-(1-oxetan-3-yl-1H-pyrazol-4-yl)-[1,2,4]oxadiazol-3-yl]-ethyl}-phenyl)-pyridin-2-ylamine] |
